Measured values from article PMC9405102, “Targeted Modification and Structure-Activity Study of GL-29, an Analogue of the Antimicrobial Peptide Palustrin-2ISb” (Antibiotics, 2022).
Where a SMILES comes first, the peptide text is derived from it.

Legend:
[1] = tested on: C. albicans (ATCC CRM 10231); assay type: cell-based, Candida albicans; conditions: ATCC CRM 10231
Method: (§1) The antimicrobial activity of the peptides was determined through the minimum inhibitory concentrations (MICs) and the minimum bactericidal concentration (MBCs) using the broth-dilution method in a 96-well plate, as described in the previous study. Six bacteria, including the Gram-positive bacteria, S. aureus (ATCC CRM 6538), MRSA (ATCC CRM 12493) and E. faecalis (NCTC 12697), the Gram-negative bacteria, E. coli (ATCC CRM 8739), K. pneumoniae (ATCC CRM 43816) and P. aeruginosa (ATCC CRM 9027), the yeast, C. albicans (ATCC CRM 10231) and clinical isolates, S. aureus (B042 V2E1 A), MRSA (B038 V1S1 A), E. coli (ATCC BAA-2340) and K. pneumoniae (ATCC BAA-1705) were used in these assays to evaluate the antimicrobial potency of the two peptides by determining their MICs and MBCs. All bacteria were cultured in MHB and the yeast, C. albicans was cultured in YPD broth overnight. Then, the microorganisms were sub-cultured and diluted to the final concentration of 2 × 10^5 CFU/mL to 5 × 10^5 CFU/mL. The Norfloxacin and amphotericin B were used as positive controls for the bacteria and yeast, respectively. The assay was repeated three times, with five replicates at each time.

[2] = tested on: MRSA (B038 V1S1 A); assay type: cell-based, methicillin-resistant S. aureus; conditions: B038 V1S1 A
Method: as §1

[3] = tested on: MRSA (ATCC CRM 12493); assay type: cell-based, methicillin-resistant S. aureus; conditions: ATCC CRM 12493
Method: as §1

[4] = tested on: E. faecalis (NCTC 12697); assay type: cell-based, Enterococcus faecalis; conditions: NCTC 12697
Method: as §1

[5] = tested on: S. aureus (ATCC CRM 6538); assay type: cell-based, Staphylococcus aureus; conditions: ATCC CRM 6538
Method: as §1

[6] = tested on: S. aureus (B042 V2E1 A); assay type: cell-based, Staphylococcus aureus; conditions: B042 V2E1 A
Method: as §1

[7] = tested on: P. aeruginosa (ATCC CRM 9027); assay type: cell-based, Pseudomonas aeruginosa; conditions: ATCC CRM 9027
Method: as §1

[8] = tested on: E. faecalis (NCTC 12697); assay type: cell-based, Enterococcus faecalis; conditions: NCTC 12697, 24 h
Method: (§2) The MBIC and MBEC assays were performed to measure the inhibition and eradication of bacterial biofilm in the presence of different concentrations of peptides. Gram-positive bacteria were inoculated in Luria–Bertani (LB) broth at 37 °C overnight whereas Gram-negative bacteria were inoculated in tryptic soy broth (TSB), and then sub-cultured until reaching the logarithmic growth phase by measuring the OD values at a wavelength of 550nm. For the MBIC assay, 99 µL of diluted bacterial suspension (5 × 10^5 CFU/mL) was mixed with 1 µL of prepared peptide solutions in the wells of a round-bottomed 96-well plate, achieving the final concentrations from 512 to 1 µM, and then incubated at 37 °C for 24 h in a shaking incubator at 200 revolutions per minute (rpm). After this, the plate was washed twice by PBS and fixed with methanol for 30 min. For MBEC assay, 100 µL of diluted bacterial suspension (5 × 10^5 CFU/mL) was seeded into a round-bottomed 96-well plate and incubated at 37 °C for 24 h in a shaking incubator at 200 rpm to obtain mature biofilm. After this, plates were washed twice by PBS and incubated with different concentrations of peptide solution from 512 to 1 µM at 37 °C for 24 h. Afterwards, the plate was washed twice with PBS and fixed with methanol for 30 min. Then, both MBIC and MBEC plates were stained by 130 μL of 0.1% (g/v) crystal violet solutions for 30 min and washed with PBS until no apparent staining was observed. Evaporating crystal violet stains were dissolved by 33% (v/v) acetic acid, and the absorbance values were measured by a Synergy HT Microplate Reader (BioTek, Minneapolis, MN, USA) set to 595 nm. The minimum concentration that inhibited the formation of biofilm was defined when compared to the negative control group, as the MBIC. The minimum concentration that eradicated the biofilm was defined, when compared to the negative control group, as the MBEC. The biofilm assays were performed in triplicate.

[9] = tested on: P. aeruginosa (ATCC CRM 9027); assay type: cell-based, Pseudomonas aeruginosa; conditions: ATCC CRM 9027, 24 h
Method: as §2

[10] = tested on: K. pneumoniae (ATCC BAA-1705); assay type: cell-based, Klebsiella pneumoniae; conditions: ATCC BAA-1705
Method: as §1

[11] = tested on: K. pneumoniae (ATCC CRM 43816); assay type: cell-based, Klebsiella pneumoniae; conditions: ATCC CRM 43816
Method: as §1

[12] = tested on: E. coli (ATCC BAA-2340); assay type: cell-based, Escherichia coli; conditions: ATCC BAA-2340
Method: as §1

[13] = tested on: E. coli (ATCC CRM 8739); assay type: cell-based, Escherichia coli; conditions: ATCC CRM 8739
Method: as §1

[14] = tested on: MRSA (ATCC CRM 12493); assay type: cell-based, methicillin-resistant S. aureus; conditions: ATCC CRM 12493, 24 h
Method: as §2

[15] = tested on: E. coli (ATCC CRM 8739); assay type: cell-based, Escherichia coli; conditions: ATCC CRM 8739, 24 h
Method: as §2

[16] = tested on: K. pneumoniae (ATCC CRM 43816); assay type: cell-based, Klebsiella pneumoniae; conditions: ATCC CRM 43816, 24 h
Method: as §2

CC[C@H](C)[C@H](NC(=O)[C@H](CCCCN)NC(=O)[C@@H](NC(=O)[C@H](CO)NC(=O)[C@H](CC(N)=O)NC(=O)[C@H](Cc1c[nH]c2ccccc12)NC(=O)[C@H](CC(C)C)NC(=O)CN)[C@@H](C)CC)C(=O)N[C@@H](C)C(=O)NCC(=O)N[C@@H](CCCCN)C(=O)N[C@@H](CCCCN)C(=O)N[C@@H](CC(C)C)C(=O)N[C@@H](Cc1ccccc1)C(=O)N[C@H](C(=O)N[C@@H](CC(N)=O)C(=O)N[C@H](C(=O)N[C@@H](CC(C)C)C(=O)N[C@@H](CC(=O)O)C(=O)N[C@@H](CCCCN)C(=O)N[C@H](C(=O)N[C@@H](CCCNC(=N)N)C(=O)N[C@H]1CSSC[C@@H](C(=O)O)NC(=O)CNC(=O)CNC(=O)[C@H](C)NC(=O)[C@H](C(C)C)NC(=O)[C@H](CCCCN)NC1=O)[C@@H](C)CC)C(C)C)C(C)C [GL-29] (HELM PEPTIDE1{G.L.W.N.S.I.K.I.A.G.K.K.L.F.V.N.V.L.D.K.I.R.C.K.V.A.G.G.C}$PEPTIDE1,PEPTIDE1,23:R3-29:R3$$$V2.0; N-terminus and C-terminus assumed; bridges inferred)
256 µM: MBC [1] | MBEC [14]
4 µM: MBC [5] | MIC [5] | MBC [6] | MIC [6] | MBC [10] | MIC [10] | MBC [12] | MBC [13] | MBIC [15]
16 µM: MIC [4] | MBC [7] | MIC [7] | MBIC [8] | MBIC [16]
32 µM: MBC [4]
2 µM: MBC [2] | MIC [2] | MIC [12] | MIC [13]
128 µM: MIC [1] | MBEC [15]
8 µM: MBC [3] | MIC [3] | MBC [11] | MIC [11] | MBIC [14]
64 µM: MBIC [9]
> 512 µM: MBEC [8] | MBEC [9] | MBEC [16]
